Measurements taken from ChEMBL document CHEMBL5107966, “Cascade synthetic strategies opening access to medicinal-relevant aliphatic 3- and 4-membered N-heterocyclic scaffolds” (Eur J Med Chem, 2022).
pEC50, pIC50: −log10 of the molar value. In brackets after ≈: the same amount, converted by molar mass.

Columns and labels:
[1] = system: Enterococcus faecium; experiment: Antimicrobial activity against Enterococcus faecium incubated for 18 to 24 hrs; format: functional; settings: time 18-24 hrs
[2] = system: Pseudomonas aeruginosa; experiment: Antimicrobial activity against Pseudomonas aeruginosa incubated for 18 to 24 hrs; format: functional; settings: time 18-24 hrs
[3] = system: Staphylococcus aureus; experiment: Antimicrobial activity against Staphylococcus aureus incubated for 18 to 24 hrs; format: functional; settings: time 18-24 hrs
[4] = system: Enterobacter cloacae; experiment: Antimicrobial activity against Enterobacter cloacae incubated for 18 to 24 hrs; format: functional; settings: time 18-24 hrs
[5] = system: U-251; experiment: Antiproliferative activity against human U-251 cells assessed as reduction in cell viability incubated for 72 hrs by CCK-8 assay; format: functional, cell-based; settings: U-251, 72 h
[6] = system: HepG2; experiment: Antiproliferative activity against human HepG2 cells assessed as reduction in cell viability incubated for 72 hrs by CCK-8 assay; format: functional, cell-based; settings: HepG2, 72 h
[7] = system: HCT-116; experiment: cells; settings: Homo sapiens, HCT-116, 72 h
[8] = system: A-431; experiment: Antiproliferative activity against human A-431 cells assessed as reduction in cell viability incubated for 72 hrs by CCK-8 assay; format: functional, cell-based; settings: A-431, 72 h
[9] = system: HCT-116; experiment: Cytotoxicity against human HCT-116 cells assessed as cell viability incubated for 24 hrs by MTT assay; format: functional, cell-based; settings: HCT-116, 24 h
[10] = system: Escherichia coli; experiment: Antimicrobial activity against Escherichia coli ATCC 8739; format: functional
[11] = system: Staphylococcus aureus; experiment: Antimicrobial activity against Staphylococcus aureus ATCC 29213; format: functional
[12] = system: Pseudomonas aeruginosa; experiment: Antimicrobial activity against Pseudomonas aeruginosa MCCB 0035; format: functional
[13] = system: Candida albicans; experiment: Antimicrobial activity against Candida albicans NCIM 2087; format: functional
[14] = system: Aspergillus niger; experiment: Antimicrobial activity against Aspergillus niger […]; format: functional
[15] = system: Aspergillus fumigatus; experiment: Antimicrobial activity against Aspergillus fumigatus NCIM 2081; format: functional
[16] = system: RAW264.7; experiment: Inhibition of NO release in mouse RAW264.7 incubated for 15 mins by fluoroscence-luminescence reader infinite M200 Pro analysis; format: functional, cell-based; settings: RAW264.7, 0.25 h
[17] = system: RAW264.7; experiment: Cytotoxicity against mouse RAW264.7 by WST-1 vital dye reagent method; format: functional, cell-based
[18] = system: A2780; experiment: Cytotoxicity against human A2780 cells; format: functional, cell-based
[19] = system: HeLa; experiment: Cytotoxicity against human HeLa cells
[20] = system: HCT-116; experiment: Cytotoxicity against human HCT-116 cells; format: functional, cell-based
[21] = system: A549; experiment: Cytotoxicity against human A549 cells

Cc1ccc(C(OC(=O)C2N=C2c2ccccc2Br)C(=O)NC(C)(C)C)cc1 (configuration not stated)
MIC [1]: 16 µg/mL (≈ 36.1 µM) | MIC [2]: 150 µg/mL (≈ 338 µM) | MIC [3]: 16 µg/mL (≈ 36.1 µM) | MIC [4]: 75 µg/mL (≈ 169 µM)

COc1cccc2c1C(=O)c1c(O)c3c(c(O)c1C2=O)C[C@@](O)(C(=O)CO)C[C@@H]3O[C@H]1C[C@H](N)[C@H](O)[C@H](C)O1 [DOXORUBICIN]
pEC50 [5]: 7.15 | pEC50 [6]: 6.17 | pEC50 [7]: 6.80 | pEC50 [8]: 6.15

CC[C@@]1(O)C(=O)OCc2c1cc1n(c2=O)Cc2cc3ccccc3nc2-1 [CAMPTOTHECIN]
pIC50 [9]: 8.70

Cc1cc(NS(=O)(=O)c2ccc(N)cc2)no1 [SULFAMETHOXAZOLE]
MIC [1]: 4 µg/mL (≈ 15.8 µM) | MIC [2]: 8 µg/mL (≈ 31.6 µM) | MIC [3]: 16 µg/mL (≈ 63.2 µM) | MIC [4]: 8 µg/mL (≈ 31.6 µM)

COc1ccc(C2CN(c3cccc(C#N)n3)C2)cc1-c1ccnc(N)c1
pEC50 [5]: 7.52 | pEC50 [6]: 5.25 | pEC50 [7]: 6.44

CCOP(=O)(O)C1CN1C1CCCCC1 (configuration not stated)
pIC50 [9]: 4.79

CC1(C)S[C@@H]2[C@H](NC(=O)[C@H](N)c3ccccc3)C(=O)N2[C@H]1C(=O)O [AMPICILLIN]
MIC [10]: 1 µg/mL (≈ 2.86 µM) | MIC [11]: 2 µg/mL (≈ 5.72 µM) | MIC [12]: 4 µg/mL (≈ 11.4 µM)

Cc1ccc(S(=O)(=O)N2C(=O)C(Cl)[C@H]2c2ccccc2F)cc1 (some centres not stated)
MIC [10]: 4 µg/mL (≈ 11.3 µM) | MIC [13]: 16 µg/mL (≈ 45.2 µM) | MIC [11]: 4 µg/mL (≈ 11.3 µM) | MIC [14]: 16 µg/mL (≈ 45.2 µM) | MIC [15]: 4 µg/mL (≈ 11.3 µM) | MIC [12]: 32 µg/mL (≈ 90.4 µM)

CCOP(=O)(O)C1CN1Cc1ccccc1 (configuration not stated)
pIC50 [9]: 5.11

O=C1[C@@H](Oc2ccc(Cl)cc2Cl)[C@@H](c2ccc([N+](=O)[O-])cc2)N1CCCN1CCOCC1
pIC50 [16]: 5.38 | pIC50 [17]: 3.54

Nc1cccc([C@@H]2[C@H](Oc3ccc4ccccc4c3)C(=O)N2CCCN2CCOCC2)c1
pIC50 [16]: 5.24 | pIC50 [17]: < 3.30

COc1ccc(C2NC2c2cc(OC)c(OC)c(OC)c2)cc1 (configuration not stated)
pIC50 [18]: 5.33 | pIC50 [19]: 5.31 | pIC50 [20]: 5.26 | pIC50 [21]: 5.06

Cc1ccc(S(=O)(=O)N2C(=O)C(Cl)[C@H]2c2ccc(F)cc2)cc1 (some centres not stated)
MIC [10]: 0.5 µg/mL (≈ 1.41 µM) | MIC [13]: 2 µg/mL (≈ 5.65 µM) | MIC [11]: 1 µg/mL (≈ 2.83 µM) | MIC [14]: 8 µg/mL (≈ 22.6 µM) | MIC [15]: 2 µg/mL (≈ 5.65 µM) | MIC [12]: 4 µg/mL (≈ 11.3 µM)

CCOP(=O)(O)C1CN1C(C)c1ccc2ccccc2c1 (configuration not stated)
pIC50 [9]: 4.91

Cc1ccc(S(=O)(=O)N2C(=O)C(Cl)[C@H]2c2cccc(F)c2)cc1 (some centres not stated)
MIC [10]: 2 µg/mL (≈ 5.65 µM) | MIC [13]: 8 µg/mL (≈ 22.6 µM) | MIC [11]: 8 µg/mL (≈ 22.6 µM) | MIC [14]: 16 µg/mL (≈ 45.2 µM) | MIC [15]: 16 µg/mL (≈ 45.2 µM) | MIC [12]: 16 µg/mL (≈ 45.2 µM)

O=C1[C@@H](Oc2ccc(Cl)cc2)[C@@H](c2ccccc2[N+](=O)[O-])N1N1CCOCC1
pIC50 [16]: 5.10 | pIC50 [17]: < 3.30

O=C(O)C1N=C1c1ccccc1 (configuration not stated)
MIC [1]: 9 µg/mL (≈ 55.8 µM) | MIC [2]: 9 µg/mL (≈ 55.8 µM) | MIC [3]: 9 µg/mL (≈ 55.8 µM) | MIC [4]: 9 µg/mL (≈ 55.8 µM)

COc1cc([C@@H]2c3cc4c(cc3[C@@H](O[C@@H]3O[C@@H]5CO[C@@H](C)O[C@H]5[C@H](O)[C@H]3O)[C@H]3COC(=O)[C@H]23)OCO4)cc(OC)c1O [ETOPOSIDE]
pIC50 [9]: 4.58

Clc1ccccc1C(c1ccccc1)(c1ccccc1)n1ccnc1 [CLOTRIMAZOLE]
MIC [13]: 4 µg/mL (≈ 11.6 µM) | MIC [14]: 16 µg/mL (≈ 46.4 µM) | MIC [15]: 1 µg/mL (≈ 2.9 µM)

COc1cc(-c2cc(C3CN(c4cccc(C#N)n4)C3)ccc2OC)ccn1
pEC50 [5]: 5.92 | pEC50 [6]: 6.34 | pEC50 [7]: 4.83 | pEC50 [8]: 6.15
